Laboratory results published in article PMC6292454 (Biochemical Journal, 2018).
Read-outs that look alike come from different tables or passages of the source.

Legend:
[1] = biological target: T1, NA2009wt (recombinant neuraminidase) (Influenza A virus, UniProt C3W6G3); assay: biochemical; assay type: biochemical, A/California/07/2009 (H1N1) influenza virus; details: for Ki values, fluorometric assay, as described in the text / decrease in potency relative to oseltamivir carboxylate (4): pH 6.15; for Ki values, fluorometric assay, as described in the text: units given in the value; for decrease in potency relative to oseltamivir carboxylate (4): fluorometric assay
[2] = biological target: T1, NA2009wt (recombinant neuraminidase); assay: biochemical; assay type: binding, A/California/07/2009 (H1N1) influenza virus

| SMILES | Ki values, fluorometric assay, as described in the text [1] | Ki [2] | Ki [1] | decrease in potency relative to oseltamivir carboxylate (4) [1] |
| --- | --- | --- | --- | --- |
| CCC(CC)O[C@@H]1C=C(C(=O)O)C[C@H](N[C@@H](CC(=O)O)C(=O)O)[C@H]1NC(C)=O (mixture of isomers) [compound 10] | micromolar range |  |  |  |
| CCC(CC)O[C@@H]1C=C(P(=O)(O)O)C[C@H](N)[C@H]1NC(C)=O [compound 2, tamiphosphor, reference compound] |  | 52 ± 9 nM | 26 ± 4 nM |  |
| CCC(CC)O[C@@H]1C=C(C(=O)O)C[C@H](N[C@@H](C)C(=O)O)[C@H]1NC(C)=O [compound 8] |  | 170 ± 60 nM | 15 ± 2 nM | comparable to that of oseltamivir carboxylate |
| CCC(CC)O[C@@H]1C=C(C(=O)O)C[C@H](N[C@H](C)C(=O)O)[C@H]1NC(C)=O [compound 9] |  | 960 ± 260 nM | 250 ± 40 nM | ~10 fold |
| CCC(CC)O[C@@H]1C=C(C(=O)O)C[C@H](NC(=O)COCCOCCOC)[C@H]1NC(C)=O [compound 11] | micromolar range |  |  |  |
